Measured values as given in a melting point compilation (Tetko et al.; mined from patent text by program, amines drawn as free bases though some values may be those of a salt).

SMILES | melting point [°C]
CC(C)(C)NC(=S)Nc1cc(F)cc(F)c1 | 140 to 142
CCNC(=O)c1cc(Cl)ccc1[Si](C)(C)C | 104 to 105
O=CNC1CCN(c2ncc3ncnc(Nc4ccc(F)c(Cl)c4)c3n2)CC1 | 201 to 203
NC(=O)[C@H](O)[C@@H](O)[C@H](O)[C@H](O)CO | 109 to 111
CCCCCCCC(=O)N(C)Cc1cccc(-c2ccc(CC3SC(=O)NC3=O)cc2C)c1 (stereo unspecified) | 130
Cc1nc(-c2cnn(-c3c(Cl)cc(C(F)(F)F)cc3Cl)n2)[nH]c1S(=O)(=O)Cl | 254 to 255
NS(=O)(=O)c1cccc(CCO)c1 | 109
O=c1c2c(Cc3ccccc3Cl)n[nH]c2c2cccnc2n1-c1cccc(C(F)(F)F)c1 | 276 to 278
CN(C)CCNC(=O)[C@H]1C[C@H](NC(=O)Cc2ccccc2)c2c(Cl)cc(Cl)cc2N1 (relative stereo) | 158 to 159
COc1cccc(-c2cc(=O)c3cccc(C(=O)Nc4ccc(CCCCN5CCc6cc(OC)c(OC)cc6C5)cc4)c3[nH]2)c1 | 116
Cc1cc2c3c(ccc2cc1C(=O)c1ccc(Cl)cc1)OC(=O)C3(C)C | 130 to 132
COc1cccc2c(Nc3ccccc3C)nc(N(C)C)nc12 | 141 to 143
CC(c1oc2ccccc2c(=O)c1-c1cccc(F)c1)n1nc(-c2csc3ccccc23)c2c(N)ncnc21 (stereo unspecified) | 226 to 229
Cc1nnc(NCCCN2CCN(C)CC2)c2cc3ccccn3c12 | 60
CC1(C)[C@@H](CN2CCCCC2)CC[C@@]1(C)NCC(=O)N1C[C@@H](F)C[C@H]1C#N | 100 to 103
O=S(=O)(NCC(O)(Cn1cncn1)c1ccc(Cl)cc1Cl)c1ccc(Cl)cc1 (stereo unspecified) | 182 to 183
Cc1ccc(NC(=O)c2ccc(C[N+]3([O-])CC[N+](C)([O-])CC3)cc2)cc1Nc1nccc(-c2cccnc2)n1 (stereo unspecified) | 242 to 244
CC(C)(C)CCC(=O)c1ccc2cc(-c3ccc4c(Br)c(OCC(=O)O)ccc4c3)sc2c1 | 246 to 247
CCN(CC)C(=O)CCCC1CCN(Cc2cnc3c(C)c(NC(=O)c4ccc(-c5ccc(F)cc5)cc4)ccc3c2)CC1 | 145 to 146
COc1cccc(-c2n[nH]c(-c3ccccc3COC(C)=O)n2)c1 | 83 to 87
CCCc1nc(S(=O)(=O)N(c2c(Cl)cccc2Cl)S(=O)(=O)c2nc(CCC)n(-c3ccccc3)n2)nn1-c1ccccc1 | 262 to 264

SMILES | melting point [°C]
COc1cc(Sc2nc(C)c(CC(=O)O)s2)nc(OC)n1 | 164 to 165
Nc1ccc2c(c1)CC(N1CCN(CCN3CCOC3=O)CC1)c1ccccc1S2 (stereo unspecified) | 193 to 196
O=S(CCCCNC(P(=O)(O)O)P(=O)(O)O)c1ccccn1 (stereo unspecified) | 235 to 240
COc1cc(CCCC(O)C(=O)OC(C)C)ccc1OCc1nc(-c2ccco2)oc1C (stereo unspecified) | 75 to 76
Cc1nc2cccc(N)c2c(=O)n1C1CCC(=O)NC1=O (stereo unspecified) | 293 to 295
CCOC(=O)c1snc(-c2ccc(F)cc2)c1N | 137 to 139
N#CC1CN1C(=O)c1ccc(Cl)cc1Cl (stereo unspecified) | 95 to 97
N#CCC(=O)Nc1ccc(-c2ncn(-c3ccc(OC(F)(F)F)cc3)n2)cc1 | 250 to 252
C=CCOc1ccccc1-c1ccc(C(N)=O)c(=O)[nH]1 | 210 to 212
COc1ccc(C)cc1NC(=O)Nc1ccc(N2CCN(C(=O)Nc3ncccc3C)CC2)cc1 | 209 to 211
CCOC(=O)[C@H](CC(C)C)SC[C@H](O)[C@H](CC1CCCCC1)NC(=O)[C@H](Cc1c[nH]cn1)NC(=O)[C@H](Cc1ccccc1)NC(=O)OC(C)(C)C | > 82
O=c1[nH]c2cccnc2n1-c1ccncc1 | 265 to 267
O=C1NCCc2c(OCC3CO3)cccc21 (stereo unspecified) | 165 to 166
CN(C)C1=C(Cl)C(=O)NC1=Nc1ccccc1 | 135 to 138
CC(Cc1cccnc1)(NC(=O)OC1C2CC3CC(C2)CC1C3)C(=O)NCCc1ccccc1 (stereo unspecified) | 167 to 169
CCONC(CC)=C1C(=O)OC(CC)=C(Br)C1=O | 76.5 to 77.5
O=C1OC(=O)C2=C1SCC(c1ccccc1)S2 (stereo unspecified) | 131 to 133
COC(=O)CC1CCCC2CC(=O)N(OCC(=O)C(CC(=O)O)NC(=O)OCc3ccccc3)C12 (stereo unspecified) | 55 to 58
CC(CN1CCCC1)Oc1ccccc1CC(=O)N1CC2C(C1)C(c1ccccc1)(c1ccccc1)CCS2=O (racemic) | 126
Fc1cccnc1N1CCC2(CC1)COOC2 | 45 to 47

The next lines start with the values.

melting point [°C] | SMILES
174 to 175 | CCOC(=O)C1=C(C)NC(=NC#N)N(C(=O)OCC)C1c1cccc([N+](=O)[O-])c1 (stereo unspecified)
139 | CCN(CC1CCCC1)c1nc2c(cc1CN(Cc1cc(C(F)(F)F)cc(C(F)(F)F)c1)c1nc(C(F)(F)F)co1)c(C)nn2C
112 | CN1CCC(CC(=O)N2c3ccccc3C(=O)Nc3cccc(Cl)c32)CC1
186 to 191 | C=CCn1c(NCC(F)(F)F)nc(N2CCc3ccccc3CC2)c(C#N)c1=O
260 to 262 | COCCCn1c2ccc(O)cc2c2c3c(c(-c4ccccc4Cl)cc21)C(=O)NC3=O
244 to 245 | Cc1c(-c2ccccc2)[nH]c(=O)n1C1CCN(Cc2cccc3c2OCO3)CC1
148 to 150 | O=S(=O)(Nc1cccnc1Nc1ccccc1)c1ccccc1
222 to 223 | NS(=O)(=O)c1cc2c(s1)S(=O)CC(=O)N2 (stereo unspecified)
220 to 223 | CC(=O)c1cccc2nc[nH]c12
121 to 123 | O=C1Cc2ccccc2C=Cc2cc(Br)ccc21
171 to 173 | Cc1ccc(Cl)cc1N1CN(C)CNC1=S
115 to 118 | O=C(O)c1cc(NC(=O)C(CS)Cc2cccnc2)cs1 (stereo unspecified)
118 to 119 | O=c1oc(-c2cccc(C(F)(F)F)c2)nc2ccc(F)cc12
193 to 194 | Cc1cc(S(N)(=O)=O)ccc1NC(=O)CCl
61 | CCC(=O)c1ccc(OCCCCCCCc2cc(C)no2)cc1
260 to 262 | O=C(O)c1ccc2c(oc3ccccc32)c1C(=O)O
183 to 185 | COc1ccc(CS(=O)(=O)c2cc3c(OC)cc(OC)cc3oc2=O)cc1
191 | O=C(C=Cc1cccc(S(=O)(=O)NCc2cccnc2)c1)NO
169 to 170 | O=C(NC(Cc1c[nH]c2ccccc12)C(=O)Oc1c(F)c(F)c(F)c(F)c1F)OCc1ccccc1 (stereo unspecified)
174 to 175 | COc1ccc(NC(=O)c2ccccc2)cc1NCc1ccc2c(c1)OCCO2
78 to 80 | CCNC=C(C(=O)C=Cc1cccnc1)C(=O)OC
203 to 205 | CCc1nc2cccc(C(=O)OC)c2n1Cc1ccc(-c2ccccc2-c2nc(=O)s[nH]2)cc1
244 to 245 | O=c1[nH]ccc2c1ccc1cc[nH]c12
187 to 188 | COc1ccccc1N1CCN(CCCn2c(=O)[nH]c3cscc3c2=O)CC1
63 | COC(=O)COc1ccc(CC(C)=O)cc1
158 to 161 | CCOC(=O)c1cc(=O)c2c(OCCOc3ccc([N+](=O)[O-])cc3)cccc2o1
119 to 120 | CCOC(=O)C(CC)Cc1ccc(NC(=O)c2ccc(Cl)cc2)cc1 (stereo unspecified)
176 to 178 | COc1ccc(-n2cc(C(=O)O)c(C)n2)cc1

melting point [°C] | SMILES
< 50 | Nc1ccc2oc(Cc3ccccc3)cc2c1
170 to 172 | CC(CCC(=O)O)C(=O)NC1(C(=O)O)CCCC1 (stereo unspecified)
149 to 150 | c1ccc(C(OC2CCN(CCOc3ccc4nncn4n3)CC2)c2ccccc2)cc1
64 to 66 | CCOC(=O)Cn1c(-c2ccccc2Cl)nc2cccnc21
113 to 115 | Cc1cc(-c2cc(C(F)(F)F)nn2-c2ccc(S(N)(=O)=O)c(Cl)c2)ccc1-c1cscn1
82 to 83 | COCCN(CCOC)C(=O)c1ccc(C(=O)N2CCN(c3ncccc3NC(C)C)CC2)cc1
124 to 125 | CN(O)C(=O)C=Cc1cccc(Oc2ccccc2)c1
203 to 204 | CC(C)OC(=O)N1c2cncnc2NC(=S)C1C (racemic)
189 to 191 | CC1(C)CC(c2ccc3ccccc3c2)c2ccc(O)cc2O1 (stereo unspecified)
120 to 122 | CC1=Nc2cc(C)c(C)cc2C(=O)C1
70 to 83 | CC(C)(CC(=O)O)CC(=O)NC1(C(=O)NCCCCNc2ncccn2)Cc2ccccc2C1
118 to 120 | CCCCSc1cc(C(=O)OC)cc(S(N)(=O)=O)c1Cc1ccccc1
60 to 61 | O=C(CSc1ccccn1)C12CC3CC(CC(C3)C1)C2
177 to 178 | COc1cccc([C@H]2O[C@H](CC(=O)NCc3cccc(CCC(=O)O)c3)C(=O)N(CC(C)(C)CO)c3ccc(Cl)cc32)c1OC
118 to 120 | CC(C)(C)c1ccc(NC(=O)Nc2ccc(Oc3cc(NCc4ccccc4)ncn3)cc2)cc1
> 263 | COc1nccc2c(C)c3[nH]c4ccncc4c3cc12
136 to 138 | C=C(C)C(=O)NCc1cc(C)c(O)c(C)c1
130 to 132 | COc1cc(NC2=NCC(c3ccccc3)O2)ccc1-c1cnco1 (stereo unspecified)
226 to 230 | CNCC1CCN(c2c(F)cc3c(=O)c(C(=O)O)cn(C4CC4)c3c2OC)C1 (stereo unspecified)
156 | COc1ccc(C(CN2CCN(Cc3ccccc3)C2=O)NC(C)=O)cc1OC (stereo unspecified)
140 to 141 | N#Cc1c(N2CCCCC2)cc(-c2ccccc2)c2c1Cc1ccccc1-2
152 | COc1ccc(C(=O)c2nnc(-c3ccccc3)o2)cc1
267 | Cc1ccc(C2=CCC(C)(C)c3cc(C(=O)c4ccc5cc(C(=O)O)ccc5c4)ccc32)cc1
175 to 176 | COc1cc(COc2nn(Cc3ccccc3)cc2/C=C/C(=O)O)ccc1OCc1nc(-c2ccco2)oc1C
222 to 225 | O=[N+]([O-])c1cc2nccnc2cc1Sc1cccc2cnccc12
256 to 257 | COc1cc(Nc2c(C#N)cnc3cc(OC)c(Br)cc23)c(Cl)cc1Cl
170 to 171 | CN(C)N=Cc1cc(-n2c(=O)cc(C(F)(F)F)n(C)c2=O)ccc1Cl
